Laboratory results from publication PMC7611906 (Nature chemical biology, 2021).

Tested on: caspase 3/7 in 22Rv1 cells
Test: Caspase-Glo 3/7 assay 22Rv1
Format: cell-based
Details: read-out: EC50 Caspase-Glo 3/7, 24h

EC50: 90 nM
SMILES: Cc1ncsc1-c1ccc([C@H](C)NC(=O)[C@@H]2C[C@@H](O)CN2C(=O)[C@@H](NC(=O)COCCCOCCNC(=O)C[C@@H]2N=C(c3ccc(Cl)cc3)c3c(sc(C)c3C)-n3c(C)nnc32)C(C)(C)C)cc1 [ARV-771]
